We go through three compounds from US20200253860A1, “TOPICAL COMPOSITION FOR ANTIAGING BENEFITS” (Conopco, Inc., d/b/a UNILEVER, priority 2017, published 2020).

Structures are written as SMILES.

For this experiment, the system named is Nrf2. The experiment is described as follows: Nrf2 activation in AREc32 cells (luciferase assay). In kind it is cell-based. To be noted: for Nrf2 activation fold increase wrt the control: note to Table 1, concentration not stated. Here is the method:
The AREc32 cells were obtained from CRX biosciences (Dundee, Scotland, UK). AREc32 cells were seeded into 96-well plates (flat-bottom white, opaque, sterile, with lids) at a density of 2×10^4, cells/well in 100 μL of complete media per well. Cell plates were then incubated at 37° C., 5% CO2 in a 95% humidified incubator for 24 hours before active addition. Tert butylhydroquinone (TBHQ) was used as an assay positive control. For performing the Nrf2 activity assay, the cells were lysed using Passive Lysis Buffer (PLB) (5×) procured from Promega. The PLB was diluted in a 1:5 ratio with distilled water to make 1× PLB solution. 20 μL of 1× PLB was added to each well of the 96 well plate, including 2 wells without cell (control wells). The plate was covered with aluminium foil to protect from light and incubated for 20 minutes at room temperature, on a rocker incubator. After 20 minutes, 18 μL of the cell lysate was transferred from the transparent 96 well cell culture plate to an opaque, white, flat bottom 96-well plate. The white flat bottom plates were proceeded for Luciferase assay. The Luciferase assay was performed by using Luciferase Assay System, from Promega. 80 μL of the Luciferase Reagent was added using the injector on the TECAN infinite M1000 instrument. Luminescence was measured for a period of 10 seconds using the Green 1 filter. The typical delay time of 2 seconds, and read time of 10 seconds was used. 4 readings were taken from each well within 1 min. The plate was advanced to the next well for a repeat of the inject-then-read process. The luciferase value was represented as fold change over control in Table 1.

Regarding `CC(C)(C)c1cc(O)ccc1O` [TBHQ, Tert butylhydroquinone], the “Nrf2 activation Fold change wrt control” value (10 μM) came to 4.5 fold.
Consider `C=CC(C)(O)CCC=C(C)C` (stereo not drawn) [Linalool], for which the “Nrf2 activation fold increase wrt the control” value is recorded as “barely any change”.
On the same count and under the same terms, the same measure for `CCC/C=C/C=O` [E-2-Hexenal]: 1.1 fold.
